{"source": "paper PMC5983484", "about": "“A receptor tyrosine kinase ROR1 inhibitor (KAN0439834) induced significant apoptosis of pancreatic cells which was enhanced by erlotinib and ibrutinib” (PLoS ONE, 2018)", "target": "ROR1 (Homo sapiens, UniProt Q01973)", "sequence (Q01973 30-937)": "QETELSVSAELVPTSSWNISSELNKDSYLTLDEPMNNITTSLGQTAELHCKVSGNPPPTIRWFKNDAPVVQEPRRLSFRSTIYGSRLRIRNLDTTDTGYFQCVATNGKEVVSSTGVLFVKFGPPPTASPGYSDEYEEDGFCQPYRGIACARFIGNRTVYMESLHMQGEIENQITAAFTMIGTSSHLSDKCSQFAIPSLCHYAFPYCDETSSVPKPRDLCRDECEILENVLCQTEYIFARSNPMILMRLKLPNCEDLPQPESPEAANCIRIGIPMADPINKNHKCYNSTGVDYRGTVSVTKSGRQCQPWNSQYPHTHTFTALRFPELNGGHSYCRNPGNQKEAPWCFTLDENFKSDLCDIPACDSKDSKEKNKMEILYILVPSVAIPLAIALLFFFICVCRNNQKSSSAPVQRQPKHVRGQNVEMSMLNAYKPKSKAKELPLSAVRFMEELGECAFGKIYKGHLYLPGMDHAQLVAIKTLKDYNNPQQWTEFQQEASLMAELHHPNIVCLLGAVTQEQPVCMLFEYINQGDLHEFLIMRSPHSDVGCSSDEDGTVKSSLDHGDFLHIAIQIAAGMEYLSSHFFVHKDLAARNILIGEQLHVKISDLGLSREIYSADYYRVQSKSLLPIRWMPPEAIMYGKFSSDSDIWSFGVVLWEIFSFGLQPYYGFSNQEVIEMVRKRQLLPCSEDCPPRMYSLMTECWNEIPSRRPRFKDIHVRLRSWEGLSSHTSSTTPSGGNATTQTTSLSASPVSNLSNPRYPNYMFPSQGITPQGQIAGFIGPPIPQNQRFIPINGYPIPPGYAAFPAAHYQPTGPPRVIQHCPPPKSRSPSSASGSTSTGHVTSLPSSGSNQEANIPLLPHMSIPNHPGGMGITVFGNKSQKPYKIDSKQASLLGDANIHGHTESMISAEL", "test": "Western blot of pROR1 in PaCa-2 cells ([…] h), confirmed by human phospho-RTK array", "format": "cell-based", "data": [{"substance": "KAN0439834", "values": [{"measurement": "IC50", "result": "< 100", "unit": "nM"}]}]}
